# Data taken from patent US10716798B2, “Compositions and methods for tranquilizing heart muscle” (THE REGENTS OF THE UNIVERSITY OF MICHIGAN, priority 2007, dated 2020).
# Legend:
# [1] = system: Vitamin D receptor (VDR) in HL-1 cardiomyocytes; assay: Induction of VDR in HL-1 cardiomyocytes (Western blot); format: cell-based; conditions: HL-1 cardiomyocytes treated 48 hours, Western analysis, vs vehicle
# Experimental: (§1) HL-1 cardiomyocyte cells were grown until confluent then split, and an equal amount (8×10^6 cells) of cells were plated for 24 hours and then treated for 48 hours either with vehicle (control) or with the indicated amount of Vitamin D compound. Cells were then harvested and subjected to Western analysis.
# [2] = system: atrial natriuretic peptide (ANP) in HL-1 cardiomyocytes; assay: Repression of atrial natriuretic peptide (ANP) in HL-1 cardiomyocytes (Western blot); format: cell-based; conditions: HL-1 cardiomyocytes treated 48 hours, Western analysis, vs vehicle
# Experimental: as §1, with “Induction of VDR and repression of ANP by calcitriol (1,25-(OH)2vitamin-D3) and 1 alpha analogs (1α-Hydroxyitamin-D3 and 1α-hydroxysitocalciferol) is shown in the Western blot of FIG. 7. HL-1” for “HL-1”
# SHHF rats [3] = assay: Resting heart rate in SHHF rats after Vitamin D treatment; format: in vivo, rat; conditions: 13 weeks; for Heart rate vs control SHHF rats: SQ
# Source text: (§2) The effects of Vitamin D compounds including Vitamin D5 and D3 on the contraction of cardiomyocytes in vivo can be studied using normal and heart failure prone rats. To test the effect of Vitamin D compounds on heart failure rats, the present inventors selected the strain of rats called Spontaneously Hypertensive Heart Failure (SHHF) rats obtained from Charles River Laboratories, Wilmington Mass., USA. The SHHF rat was developed by backcrossing the SHROB rat to the SHR/N rat. They are characterized as naturally developing congestive heart failure, hypertension, nephropathy, obesity, insulin resistance, hyperinsulinemia and Type 2 diabetes spontaneously. […] Obesity is expressed as an autosomal recessive (cp/cp) trait, and hypertension is multifactorial (Yen at al., 1974). The CHF trait has been maintained through at least 15 generations. The mode of inheritance of the CHF is probably multifactorial, much like hypertension. These rats develop many of the clinical signs of CHF: generalized and subcutaneous edema, hydrothorax, ascites, dyspnea, cyanosis, enlarged hearts, left atrial thrombosis, and hyperemia of the lungs, liver, and kidneys. These rats are hypertensive, but blood pressure falls to normal levels with the onset of severe CHF. […] These morphologic changes probably reflect early compensatory LV hypertrophy at 6-10 months of age. This is followed by LV failure with elevated right heart pressures and RVFW hypertrophy, finally leading to biventricular CHF. This progression is similar to that of hypertensive heart disease in humans. Other similarities between the SHHF model and human hypertensive-diabetic cardiomyopathy (Factor et al., 1980) and another rat model of hypertension and diabetes (Factor et al., 1983) include increased heart weight and prominent interstitial fibrosis. Pathologic alterations in SHHF Rat hearts corresponding to human dilated cardiomyopathy include four-chamber dilation, intracardiac thrombi, myocyte hypertrophy, and interstitial fibrosis (Unveferth et al., 1986).
# Five treatment groups were established using SHHF rats. […]
# SHHF rats [4] = assay: Systolic blood pressure by tail-cuff in SHHF rats; format: in vivo, rat; conditions: 100 ng/100 g bw, SQ, 13 weeks
# Source text: as §2, with “This is followed by LV failure with elevated right heart pressures and RVFW hypertrophy, finally leading to biventricular CHF. This progression is similar to that of hypertensive heart disease in humans. Other similarities between the SHHF model and human hypertensive-diabetic cardiomyopathy (Factor et al., 1980) and another rat model of hypertension and diabetes (Factor et al., 1983) include increased heart weight and prominent interstitial fibrosis. Pathologic alterations in SHHF Rat hearts corresponding to human dilated cardiomyopathy include four-chamber dilation, intracardiac thrombi, myocyte hypertrophy, and interstitial fibrosis (Unveferth et al., 1986).” left out
# [5] = Total body weight of SHHF rats; format: in vivo, rat; conditions: 100 ng/100 g body weight, SQ, 13 weeks
# Experimental: (§3) Five treatment groups were established using SHHF rats. In each cohort (5-6 rats), the diets were substantially identical, rats were each fed a high salt diet (8% NaCl) (Harlan Teklad diet TD92012, Madison Wis. USA) and were accommodated equally. All treatment groups received a single once daily administration subcutaneously (SQ) of a Vitamin D compound at varying concentrations five times per week. The Vitamin D compound was dissolved in 1,2 propandiol containing 0.7% ethanol. Control SHHF rats were dosed with vehicle control alone. The animals were dosed for a period of 13 weeks before they were examined by echocardiography explained in more detail below. The first group comprised a control group in which they received a vehicle alone treatment lacking any Vitamin D. The second group consisted of SHHF rats injected with 18 ng 1,25 dihydroxy Vitamin D3 per dose, one dose per day treated animals. The third group consisted of SHHF rats injected with 33 ng of 1α-hydroxysitocalciferol per dose, one dose per day treated animals. The fourth group consisted of SHHF rats injected with 100 ng of 1α-hydroxysitocalciferol per dose, one dose per day treated animals. The fifth group consisted of SHHF rats injected with 300 ng of 1α-hydroxysitocalciferol per dose, one dose per day treated animals.
# Blood pressure measurement by tail-cuff artery occlusion.
# SHHF rats [6] = assay: Cardiac hemodynamic parameters by echocardiography in SHHF rats; format: in vivo, rat; conditions: for E/A transmitral flow ratio, change vs control / Cardiac index vs control / Stroke volume vs control: 5 days per week for 13 weeks
# Experimental: as §3
# After 13 weeks of treatment with the Vitamin D compounds or vehicle control alone, the SHHF rat's cardiac hemodynamic condition was measured, recorded and analyzed for the presence or absence of cardiac tranquilization and reversal of heart failure symptoms.
# Non-invasive recording electrocardiograms and echocardiography in conscious rats: Two-dimensional and M-mode echocardiographic images will be recorded using a GE S10 MHz phased-array transducer, connected to a General Electric, Vivid 7 Ultrasound System. The System used for ECG was the AnonyMOUSE ECG Screening System (Mouse Specifics, Boston, Mass. USA). The rats are placed on the instrument's platform and acclimated for 10 min prior to ECG recordings. Animals are anesthetized using an isoflurane anesthetic machine, first by introducing 4% isoflurane and 1 liter of oxygen to an induction chamber. When rats are in lateral recumbency and the breathing is slowed, they are moved to the table where they are placed on a warming pad to maintain body temperature. Their nose is placed in a cone which supplies 1-2% isoflurane and 1 liter of oxygen to maintain a surgical plane of anesthesia. The hair is removed from the upper abdominal and thoracic area with depilatory cream. ECG is monitored via non-invasive resting ECG electrodes (trimmed to fit) placed on the paw pads. The echocardiogram takes approximately 10 minutes.
# Transthoracic echocardiography is performed in the supine or left lateral position. Data are analyzed by proprietal software and all rats ECG intervals analyzed by Student's two-tail t-test. […]
# adult cardiomyocyte = assay: PKC activation and adult cardiomyocyte contractile function; format: cell-based
# Experimental: In addition to continued acceleration of relengthening in cardiomyocytes, upon administration of Vitamin D5 the PKC targets phospholamban and cardiac troponin I (cTnI) are specifically phosphorylated by PKC within approximately 60 minutes. Without being bound to theory, it is believed that phosphorylation of phospholamban can increase Ca^2+ sequestration into the sarcoplasmic reticulum while cardiac troponin C I phosphorylation decreases myofilament Ca^2+ sensitivity, two particularly significant events in increasing the relaxation of contractile function in the adult cardiomyocyte.
# The pharmaceutical compositions and methods described herein illustrate a mechanism to accelerate relaxation of cardiomyocyte contractile function via direct and rapid cellular action upon administration of 1α25-dihydroxyvitamin D5. These acute effects can be blocked by PKC inhibitors, illustratively bis-I. The phosphorylation of these key cardiac markers phospholamban and troponin C I develop within the same time period as the initial rapid decrease in peak shortening, and acceleration of contraction and relaxation rates.
# [7] = 300 ng/day, listed as Vitamin D5
SMILES,Induction of VDR [1],Repression of ANP expression [2],"Heart rate vs control SHHF rats or Wistar rats (SHHF rats [3]; 18 ng 1,25(OH)2D3, SQ)",Heart rate vs control SHHF rats (SHHF rats [3]; 33 ng/100 g body weight),Heart rate vs control SHHF rats (SHHF rats [3]; 300 ng/day),Systolic blood pressure vs control SHHF rats (SHHF rats [4]),Total body weight at 30 weeks age vs control SHHF rats [5],"E/A transmitral flow ratio, change vs control (SHHF rats [6]; 100 ng/day)","E/A transmitral flow ratio, change vs control (SHHF rats [6]; 100 ng/day, listed as Vitamin D5)","E/A ratio (SHHF rats [6]; 300 ng/day, 13 week treatment)",Cardiac index vs control (SHHF rats [6]; 300 ng/day),"E/A transmitral flow ratio, change vs control (SHHF rats [6]; 300 ng/day)",Stroke volume vs control (SHHF rats [6]; 300 ng/day),Cardiac index vs control (SHHF rats [6]; [7]),Stroke volume vs control (SHHF rats [6]; [7]),"Stroke volume, untreated SHHF rats in comparison to treated (SHHF rats [6]; all doses of Vitamin D5 (33, 100, 300 ng/day), 13 weeks)","Time to phosphorylation of phospholamban and cardiac troponin I (cTnI) by PKC (adult cardiomyocyte; cardiomyocytes, upon administration of Vitamin D5)",Relaxation in adult cardiomyocyte contractile function (adult cardiomyocyte; via PKC activation)
"C=C1/C(=C\C=C2/CCC[C@]3(C)[C@@H]([C@H](C)CCCC(C)C)CC[C@@H]23)C[C@@H](O)C[C@@H]1O [1α-Hydroxyitamin-D3, reference compound]",considerable induction,repression,–,–,–,–,–,–,–,–,–,–,–,–,–,–,–,–
"C=C1/C(=C\C=C2/CCC[C@]3(C)[C@@H]([C@H](C)CCCC(C)(C)O)CC[C@@H]23)C[C@@H](O)C[C@@H]1O [1,25(OH)2D3, 1,25-dihydroxyvitamin D3, reference compound]",–,repression,higher heart rates albeit not statistically significant,–,–,–,–,–,–,–,–,–,–,–,–,–,–,–
"C=C1/C(=C\C=C2/CCC[C@]3(C)[C@@H]([C@H](C)CC[C@@H](CC)C(C)C)CC[C@@H]23)C[C@@H](O)C[C@@H]1O [1α-hydroxysitocalciferol, 1-α-hydroxy-2,4-ethyl-9,10-seco-5,7,10(19)-cholestatrien-3 β-ol]",considerable induction,remarkable repression,–,decrease,increase in heart rate,significant decreased BP,significant increased body weight,statistically significant reduction,significant reduction,about 0.99,statistically significant reduction,statistically significant reduction,statistically significant reduction,significant reduction,Most pronounced,statistically significant,≤ 60 min,accelerated relaxation
